Patent publication US7572436B1, “Thionin as an antineoplastic and immunostimulant” (priority 2000, dated 2009)

How the values were obtained:
Balb C splenocytes [1] = test: Mitogen assay (^3H-thymidine uptake), murine splenocytes; type: cell-based; conditions: for CPM of tritiated thymidine incorporated: Balb C splenocytes
From the text: (§1) Murine spleen cells or human peripheral blood lymphocytes (PBLS) were obtained aseptically as described herein for use in the mitogen assay. When murine splenocytes were used, they were first treated with red cell lysing buffer (0.17 M Tris, 0.144 NH4C1, pH 7.2), washed in RPMI-10 (standard RPMI growth medium, Sigma Chemical Co., St. Louis, Mo., supplemented with 10% fetal bovine serum) and viable cells counted using Trypan Blue exclusion. Human PBLs were isolated from blood using HISTOPAQUE™-1077, a solution of FICOLL™ and sodium diatrizoate (Sigma Chemical Co., St. Louis, Mo.), and subsequent washings with RPMI-5 (RPMI supplemented with 5% fetal bovine serum) to remove platelets. Isolated lymphocytes were resuspended in RPMI-10 and a viable cell yield determined by Trypan Blue exclusion.
(§2) Drugs and known mitogenic controls were added in triplicate to a 96-well flat bottom microplate aseptically. The culture medium was RPMI-10. Splenocytes or human-lymphocytes were added at a concentration of 3-4×10^5 cells/well, to a final volume of 200 μl/well. The assay plate was incubated at 37° C. in a 5% CO2 humidified incubator. At 48-50 hours, ^3H-thymidine was added (1 μCi/well), and the plate was harvested approximately 16-18 hours later.
(§3) Mitogen assay microplates were harvested using an Inotech plate harvester (Inotech Biosystems International, Inc., Rockville, Md.). Counts per minute (cpm) per well were measured using the Berthold-Inotech Trace 96-plate reader (Inotech AT, Wohlen, Switzerland) and/or a scintillation counter (Packard Tri-carb 2100TR, Packard Instrument Co., Meriden, Conn.). Mitogenic activity was directly determined by comparing cpm levels to controls.
(§4) To test whether PT stimulates mitogen activity, splenocytes were incubated for two days with IL-2 (50 units/ml) or KLH (20 μg/ml) in conjunction with PT in the concentrations shown. Figures represent the radioactivity counts of tritiated thymidine taken up during a subsequent 20-hour incubation period of cells incubated with tritiated thymidine in RPMI.

Balb C splenocytes [2] = test: as above; type: cell-based
[3] = target: high affinity binding site on murine Balb/C splenocytes (mouse); test: binding of 125I-labelled PT to isolated murine spleen cells; non-specific binding (100-fold excess of unlabelled iodinated PT) subtracted
IL-1 = test: ELISA of IL-1 production by splenocytes; type: cell-based, Balb C murine; conditions: 48 hours, PT 0.05 μg/ml
Description: (§5) Identical plates are set up for an immunoassay and a mitogen assay. Mouse splenocytes and immuno-stimulating drugs are plated in duplicate wells (immunoassay) and triplicate wells (mitogen assay) in 96-well microplates as described above. The incubation at 37° C. in a humidified 5% CO2 incubator may vary from three to five days. At the end of the activation/proliferation period, the two identical plates are harvested as an immunoassay for cytokines or harvested as a mitogen assay (to which ^3H-thymidine has been added approximately 16-18 hours earlier).
(§6) Immunoassay kits used to detect IL-1β, IL-2, and IL-12 were the murine Quantikine M™ kits produced by R&D Systems (Minneapolis, Minn.). The general procedure is the same for all interleukin cytokines, and is described in the instructions provided by the manufacturer. All reagents are used at room temperature, and are prepared according to kit instructions.
(§7) The immunoassay plate is centrifuged at 200×g to pellet all cells. A 50 μl aliquot of Assay Diluent is first added to the center of each special enzyme-coated well supplied with the kit. Next, 50 μl of standard, control or test sample of supernatant from the immunoassay incubation plate is added to each well. This is incubated at room temperatures for two hours.
Liquid is aspirated from the wells, and the wells are washed five times with surfactant diluted 1:25 with distilled water. A 100 μL aliquot of Conjugate is added to each well and incubated two hours at room temperature. The wells are again aspirated and each well washed five times.
One hundred microliters of Substrate Solution are added to each well and incubated 30 minutes at room temperature. Stop Solution (100 μl) is then added to each well. The color change is light blue to yellow (activity). The plate is read for absorbence at 450 nm and at 540 nm for background readings.
To calculate the results, the duplicate readings for each pair of standard, control, and test samples are averaged and the average background optical density readings are subtracted. A standard curve is constructed for the cytokine by plotting the mean absorbence for each standard on the y-axis against the concentration on the x-axis and drawing a best-fit curve. Picograms of cytokine are determined from the standard curve. Mitogenic activity determined from the cpm of ^3H-thymidine is compared to the concentrations of cytokine in the experimental samples in the corresponding immunoassay.
One measure of macrophage activation is the production of the cytokine interleukin-1 (IL-1) and also interleukin-12 (IL-12). Incubation of 3×10^5 Balb C murine spleen cells with 0.05 μg/ml PT was performed for 48 hours. The supernatant fluid was assayed with commercial ELISA kits for IL-1 and IL-12. […] Some experiments gave less […] and some more. This is likely a reflection of the state of the immune system in the experimental mice. The addition of KLH, an effective antigen, increased both IL-1 and IL-12 production, and the addition of PT along with the KLH further increased the production of these cytokines.

IL-12 = test: ELISA of IL-12 production by splenocytes; type: cell-based, Balb C murine; conditions: Experiment 1; 48 hours; PT 0.05 μg/ml, KLH 10 μg/ml; control 1.5
Description: as §5, §6, §7
Liquid is aspirated from the wells, and the wells are washed five times with surfactant diluted 1:25 with distilled water. A 100 μL aliquot of Conjugate is added to each well and incubated two hours at room temperature. […]
One hundred microliters of Substrate Solution are added to each well and incubated 30 minutes at room temperature. […] The plate is read for absorbence at 450 nm and at 540 nm for background readings.
To calculate the results, the duplicate readings for each pair of standard, control, and test samples are averaged and the average background optical density readings are subtracted. […] Picograms of cytokine are determined from the standard curve. Mitogenic activity determined from the cpm of ^3H-thymidine is compared to the concentrations of cytokine in the experimental samples in the corresponding immunoassay. […]

non-adherent human PBLs = test: Mitogen assay (^3H-thymidine uptake), human PBLs; type: cell-based; conditions: IL-2 50 units/ml alone (PT = 0)
From the text: as §1, §2, §3, §4

[4] = system: B16F10 melanoma tumor cells; test: In vivo inhibition of B16F10 melanoma tumor development; set-up: species or system C57BL/6NCr female mice; conditions: B16 melanoma in C57 mice, sc 3 μg PT, 100 units IL-2
Description: C57BL/6NCr female mice (20 g), approximately 50 days old, were shaved in the abdominal area, ear notched for identification, and, two or three days prior to receiving tumor cells, pre-injected subcutaneously with the immunostimulating drugs described.
On “day zero,” B16F10 melanoma tumor cells, cultured in αMEM medium with 10% FBS, were injected intradermally (10^5 cells in 0.1 ml) in the center of the mouse abdomen using a 26 gauge ½ inch needle. Four to five hours later, the drug treatment (as specified) was injected intradermally in a different area of the abdomen than the site of the tumor injection.
Intradermal treatments using the immunostimulatory drug (as specified) continued either every other day or on a Monday-Wednesday-Friday injection schedule. Control tumors (in mice not receiving an immunostimulatory drug) usually formed within seven to ten days. Tumors were examined by visual inspection, measured (length by width), and the area of any resulting lesion was recorded as mm^2 every five days.
Mice were euthanized by CO2 inhalation if the tumor exceeded 500 mm^2. Some experiments were terminated early if all mice in the control group were dead, but the experiments were not less than 20 days. The normal duration of an experiment was about 30 days.
Pyrularia thionin, both alone and in combination with IL-2, was effective in preventing or retarding the development of melanoma tumors when C57BL/6NCr mice were pretreated before injection with B16F10 cells, which produce melanoma tumors.

YAC-1 target cells = test: Natural killer assay (^51Cr release), murine splenocytes against YAC-1; type: cell-based; conditions: Swiss Webster murine splenocytes; YAC-1 targets; 48 hours with drugs; PT 0.01 μg/ml, IL-2 50 units/ml when present; effector to target ratio 80
Description: Murine spleen cell and human peripheral blood lymphocytes (PBLs) were obtained as described in the procedure for the Mitogen Assay.
Drugs and control substances were added, using sterile techniques, to the wells of a 24-well plate, using RPMI-10 as the culture medium. Spleen cells or human lymphocytes were added last to the wells at a concentration of 4×10^6 cells per 2 ml total volume in the well. Splenocyte incubation was usually three days (65-70 hours) while human lymphocyte stimulation may be extended to four to five days. The cells were incubated at 37° C. in a humidified 5% CO2 incubator.
On the day of harvest, 10^7 target cells were labeled with 150 μCi of ^51Cr (sodium chromate). Target cells used were YAC-I (murine Lymphoma) or K562 (human chronic myelogenous leukemia).
The cells were adjusted to 2×10^7 cells/ml in RPMI-10 and 150 μCi of ^51Cr were added to 500 μl of the target cell suspension (10^7 total cells) and incubated in a 5% CO2 humidified incubator for 1.5 hours. The labeled cells were washed three times with 10 ml RPMI-10 and then resuspended in 5 ml (2×10^6 cells/ml). Supernatants from washings of labeled cells were isolated and contained under lead shielding.
The stimulated effector cells were thoroughly mixed and removed from individual wells of the 24-well plate and transferred to tubes for centrifugation at 200×g. The supernatants were decanted and the pelleted cells washed once with 2 ml RPMI-10. The cells were finally resuspended in a total volume of 500 μl at approximately 8×10^6 cells/ml in RPMI-10.
One hundred microliters of the effector cell suspension (8×10^5 cells) were added in triplicate to a 96-well, V-bottom microplate. RPMI-10 was added to the wells designated for spontaneous release and total release of the target cells. One hundred microliters of the target cell suspension (1×10^4 cells/well) were added to the wells for a total volume of 200 μl. The “total release” wells contained 15 μl of 9% Triton X-100, 85 μl of RPMI-10, and 100 μl of target cells.
The 96-well plate was centrifuged at 150×g for four minutes to gently bring the effector and target cells in contact. The plate was then incubated in a humidified 5% CO2 incubator. After four hours, the assay plate was again centrifuged for five minutes at 250×g. One hundred microliters of the supernatant was carefully removed from each well and placed in 12 mm×75 mm glass tubes for counting in a gamma counter. The percent release was calculated using the following formula: […]
Addition of PT stimulates both murine splenocytes and human PBLs to kill tumor cells through lysis. This effect is enhanced in the presence of IL-2. Experimentally, the YAC-1 tumor cell line is routinely used as a target cell for murine NK cells, and the K562 cell line is used as the target for human PBLs. The human prostate cell line DU145 was also included in the test. The data set out in Table 5 show an activation of both murine and human NK cells by PT and IL-2. For these experiments, the drugs, PT and IL-2, were included in the cell suspension and incubated for 48 hours. After this period, the splenocyte suspension was mixed with the YAC-1 target cells that had been loaded with ^51Cr for four hours. The human PBLs were added to a K562 or DU-145 cell suspension that had been similarly loaded. After a 30-minute incubation, the radioactivity in the supernatant fluid was counted as a measure of lysis of the target cells, which reflects NK activity. […]

granulocyte-macrophage colony-stimulating-factor [GM-CSF]
Cpm, standard mitogen assay (Balb C splenocytes [1]; GM-CSF (20 ng/ml) alone, no PT): 1,170 Cpm
Cpm, standard mitogen assay (Balb C splenocytes [2]; GM-CSF (5 ng/ml) alone, no PT): 1,024 Cpm

Pyrularia thionin (from UniProt P07504) (peptide)
Kd [3]: 65 nM

OCCS [βME, β-mercaptoethanol, reference compound]
stimulation of the mitogen reaction (Balb C splenocytes [2]; 0.1 μg/ml (PT 20 nM; βME 40 nM)): no stimulation

keyhole limpet hemocyanin [KLH, reference compound]
CPM of tritiated thymidine incorporated (Balb C splenocytes [1]; KLH 20 μg/ml alone (PT = 0)): 3,301 ± 255 CPM
IL-1 (IL-1; Experiment 1, KLH 10 μg/ml, control 3.9): 12.4 ± 0 pg/mL
IL-1 (IL-1; Experiment 4, KLH (20 mg/ml), control 9): 9 ± 0.4 pg/mL
IL-12 (IL-12): 21 ± 1.6 pg/mL

B1: interleukin-2 (protein, UniProt P04351 21-169, looked up)
Interleukin-2: APTSSSTSSSTAEAQQQQQQQQQQQQHLEQLLMDLQELLSRMENYRNLKLPRMLTFKFYLPKQATELKDLQCLEDELGPLRHVLDLTQSKSFQLEDAENFISNIRVTVVKLKGSDNTFECQFDDESATVVDFLRRWIAFCQSIISTSPQ
notes: immunostimulatory cytokine; murine IL-2 in the mouse experiments, purchased from Sigma
CPM of tritiated thymidine incorporated (Balb C splenocytes [1]; IL-2 50 units/ml alone (PT = 0)): 2,379 ± 87 CPM
CPM of tritiated thymidine incorporated (non-adherent human PBLs): 1,900 ± 64 CPM
Average Tumor Size ([4]; 20-31 days): 364 mm^2
Number of Deaths ([4]; total mice 12 (IL-2), 15 (PT), 24 (PT + IL-2)): 1
Mice w/o Tumors ([4]; total mice 12 (IL-2), 15 (PT), 24 (PT + IL-2), 20-31 days): 0
% Cytotoxicity (YAC-1 target cells): 16.3 ± 1.1%
